*1 amine or outer side, *2 acyl side, *3 side chain or, on linkers, in order; H or OH if unused. Where a SMILES comes first, the peptide text is derived from it. [ ]: non-standard residue; d: D form. The star is where a group is joined. X1 = O=C([C@@H]1CSC([C@@H](Cc2ccccc2)N[*:1])=N1)[*:2]; X2 = C=CC(C)(C)O[C@H](C)C(N[*:1])C(=O)[*:2]; Allyl(1,1-Me2) = C=CC(C)(C)*
Assays:
Format in all cases: cell-based
[1] = tested on: A549 human lung carcinoma; experiment: Cytotoxicity, A549 cells; conditions: read-out: Cytoxicity IC50 A549
Description: (§1) Cytoxicity of trunkamide A and derivatives IC50 (molar).
(§2) Methodology: after Berjeron et al, Biochem and Bioph Res. Comm., 1984, 121, 3,848854 388=Murine lymphoma. A549=lung carcinoma. . HT-29=human colon carcinoma MEL-28=human melanoma. DU145=human prostate carcinoma.

[2] = tested on: DU145 human prostate carcinoma; experiment: Cytotoxicity, DU145 cells; conditions: read-out: Cytoxicity IC50 DU145
Description: as §1, §2

[3] = tested on: P388 murine lymphoma; experiment: Cytotoxicity, P388 cells; conditions: read-out: Cytoxicity IC50 P388
Description: as §1, §2

[4] = tested on: HT-29 human colon carcinoma; experiment: Cytotoxicity, HT29 cells; conditions: HT-29 human colon carcinoma cells; read-out: Cytoxicity IC50 HT29
Description: as §1, §2

[5] = tested on: MEL-28 human melanoma; experiment: Cytotoxicity, MEL28 cells; conditions: MEL-28 human melanoma cells; read-out: Cytoxicity IC50 MEL28
Description: as §1, §2

| Compound | IC50 [1] [nM] | IC50 [2] [nM] | IC50 [3] [nM] | IC50 [4] [nM] | IC50 [5] [nM] |
| --- | --- | --- | --- | --- | --- |
| Cyclo [Compound 10, Cyclo [L-Phe-Tzn-Thr(rPr)-Ser(rPr)-Ile-Ala-Pro]] | 1200 | 1200 | 1200 | 1200 | 1200 |
| C=CC(C)(C)OC[C@@H]1NC(=O)C([C@@H](C)OC(C)(C)C=C)NC(=O)[C@@H]2CSC(=N2)[C@@H](Cc2ccccc2)NC(=O)[C@@H]2CCCN2C(=O)[C@H](C)NC(=O)[C@H]([C@@H](C)CC)NC1=O (stereo partly drawn) [Compound 9, Cyclo[D-Phe-Tzn-Thr(rPr)-Ser(rPr)-Ile-Ala-Pro]] (cyclo(AP[X1][X2]S(Allyl(1,1-Me2))I)) | 1200 | 1200 | 1200 | 1200 | 12000 |
| Cyclo [Compound 12, Cyclo [L-Phe-Oxa-Thr(tBu)-Ser(tBu)-Ile-Ala-Pro]] | 3100 | > 6100 | 3100 | 3100 | > 6100 |
| Cyclo [Compound 11, Cyclo [L-Phe-Tzn-Thr (tBu)-Ser(tBu)-Ile-Ala-Pro]] | > 6200 | > 6200 | > 6200 | > 6200 | > 6200 |
